{
  "source": "paper PMC10147607",
  "about": "“MSI2 promotes translation of multiple IRES-containing oncogenes and virus to induce self-renewal of tumor initiating stem-like cells” (Cell Death Discovery, 2023)",
  "key": {"[1]": {"biological_target": "T1, MSI2 (full-length, wild type; recombinant MSI2) (Homo sapiens, UniProt Q96DH6)", "T1 construct": "full-length recombinant MSI2, purified; His6-tagged in EMSA (MSI2-His6)", "T1 sequence (Q96DH6 whole entry)": "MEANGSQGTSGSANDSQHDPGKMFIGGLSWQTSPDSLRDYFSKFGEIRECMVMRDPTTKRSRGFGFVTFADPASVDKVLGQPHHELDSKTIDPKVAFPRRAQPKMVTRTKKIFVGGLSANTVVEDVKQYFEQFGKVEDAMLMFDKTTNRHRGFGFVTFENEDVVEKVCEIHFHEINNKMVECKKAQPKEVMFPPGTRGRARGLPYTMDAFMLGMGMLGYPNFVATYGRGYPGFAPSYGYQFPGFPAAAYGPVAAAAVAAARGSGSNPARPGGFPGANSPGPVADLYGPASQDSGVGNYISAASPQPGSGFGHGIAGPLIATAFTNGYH", "test": "microscale thermophoresis (MST)", "assay_type": "binding"}, "[2]": {"biological_target": "T1, MSI2 (full-length, wild type; recombinant MSI2)", "test": "ligand binding curve, probably MST (method for gossypol not stated explicitly)"}},
  "data": [
    {"smiles": "CC(C)(Sc1ccc(CCN(CCCCC2CCCCC2)C(=O)NC2CCCCC2)cc1)C(=O)O", "note": "[GW7647]", "values": [
      {"measurement": "Kd", "setting": "[1]", "result": 1.2, "unit": "µM"}
    ]},
    {"smiles": "Cc1cc2c(C(C)C)c(O)c(O)c(C=O)c2c(O)c1-c1c(C)cc2c(C(C)C)c(O)c(O)c(C=O)c2c1O", "note": "[Gossypol]", "values": [
      {"measurement": "Kd", "setting": "[2]", "result": 35, "unit": "µM"}
    ]}
  ]
}
